The record followed here is patent US20110039763A1, “TARGETED ANTIMICROBIAL MOIETIES” (C3 JIAN, INC., priority 2009, published 2011).

Entries after “also recorded” stand apart in the source; their conditions may differ.

Assay [1] relates to microorganisms. Briefly: Peptide activities: targeting/binding, antimicrobial, growth or phenotype altering (Tables 7, 8). The assay is classed as cell-based. The note with it: peptides having multiple activities.
Assay [2] has as its system microorganisms. Briefly: Targeting peptide binding to target microorganisms (Tables 3, 10, 12). The note with it: microorganism(s) the targeting peptide binds; binding in aqueous buffers varied with peptide solubility, preferably 1x PBS.
Assay [3] concerns microorganisms. Briefly: Morphology, biofilm and growth disrupting peptides (Table 5). The assay is classed as cell-based. More on the design: key: A: Peptide aggregates; B: Less hyphal formation; Clumps; Diffuse clumps and small polyps; F: Diffuse growth; H: Thin; I: Growth inhibition; Microcolony formation; Rippled; Small polyps; Thick; W: Halo formation on top, microlonies on bottom. The source says:
In certain embodiments peptides that induce alterations in phenotype or other biological activities can also be used as antimicrobial effector moieties.

With “PF-C075: peptide having multiple activities (KALVISVFAIVFSIIFVKFFYWRDKK; Peptide with targeting and/or antimicrobial activity)”, in assay [1], the Activities entry is recorded as “G B”. Besides, the “Target(s)” value in assay [2] is “A. naeslundii; also recorded: F. nucleatum; also recorded: P. gingivalis; also recorded: S. mutans; also recorded: T. denticola”. The “Organism, effect” value was “F. nucleatum (T)” in assay [3] (F. nucleatum), “P. gingivalis (R)” in assay [3] (P. gingivalis) and “S. mutans (F)” in assay [3] (S. mutans).

In the case of “PF-C084: peptide having multiple activities (FFSVIFLFGLNYLICNSPLFNILR; Peptide with targeting and/or antimicrobial activity)”, in assay [1], the Activities entry is given as “G B”. In assay [2], the “Target(s)” value is “A. naeslundii; also recorded: F. nucleatum; also recorded: P. gingivalis; also recorded: S. mutans”. Moreover, the “Organism, effect” value in assay [3] (F. nucleatum) is “F. nucleatum (T)”; in assay [3] (P. gingivalis), “P. gingivalis (R)”; in assay [3] (S. mutans) it was “S. mutans (F)”.

On to “PF-C088: peptide having multiple activities (DIANNILNSVSERLIIA; Peptide with targeting and/or antimicrobial activity)”, for which the Activities result in assay [1] was “G B”. In assay [2], the “Target(s)” value was “A. naeslundii; also recorded: F. nucleatum; also recorded: P. gingivalis; also recorded: S. mutans; also recorded: T. denticola”. In addition, the “Organism, effect” value in assay [3] (F. nucleatum) is recorded as “F. nucleatum (H)”; in assay [3] (P. gingivalis), “P. gingivalis (R)”; in assay [3] (S. mutans) it was “S. mutans (I)”.

Consider “PF-C131: peptide having multiple activities (chain 1 QWIVAKREIRMHIYCHISVIHVIIFFG; chain 2 QWIVAKREIRMHIYCHISVIHVIIFFG; Peptide with targeting and/or antimicrobial activity)”, for which the Activities entry in assay [1] is “G B”. Also, the “Target(s)” value in assay [2] is “A. naeslundii; also recorded: F. nucleatum; also recorded: P. gingivalis; also recorded: S. mutans”. Further, the results for the “Organism, effect” value in assay [3] (F. nucleatum) and in assay [3] (S. mutans) were “F. nucleatum (T)” and “S. mutans (F)”, respectively.

As to “PF-C136: peptide having multiple activities (chain 1 LILSYQASVYPLFAYLCQQKDY; chain 2 LILSYQASVYPLFAYLCQQKDY; Peptide with targeting and/or antimicrobial activity)”, the Activities entry in assay [1] was “G B”. Also, in assay [2], the “Target(s)” value was “A. naeslundii; also recorded: F. nucleatum; also recorded: P. gingivalis; also recorded: S. mutans; also recorded: T. denticola”. In addition, the entries for the “Organism, effect” value in assay [3] (F. nucleatum) and in assay [3] (P. gingivalis) were “F. nucleatum (C)” and “P. gingivalis (R)”, respectively.

For the substance “PF-C137: peptide having multiple activities (chain 1 QRMYWFKRGFETGDFSAGDTFAELK; chain 2 QRMYWFKRGFETGDFSAGDTFAELK; Peptide with targeting and/or antimicrobial activity)”, the Activities entry in assay [1] is “G B”. Besides, the “Target(s)” value in assay [2] is given as “A. naeslundii; also recorded: F. nucleatum; also recorded: P. gingivalis; also recorded: S. mutans”. Besides, the “Organism, effect” value in assay [3] (F. nucleatum) is reported as “F. nucleatum (T)”.

On to “PF-C139: peptide having multiple activities (chain 1 LLASHPERLSLGVFFVYRVLHLLLENT; chain 2 LLASHPERLSLGVFFVYRVLHLLLENT; Peptide with targeting and/or antimicrobial activity)”, for which the Activities result in assay [1] is “G B”. The “Target(s)” value in assay [2] is recorded as “A. naeslundii; also recorded: F. nucleatum; also recorded: P. gingivalis; also recorded: S. mutans; also recorded: T. denticola”. For the same substance, the “Organism, effect” value in assay [3] (S. mutans) is recorded as “S. mutans (F)”.
